One block for each molecule: values may come before it.
Assays:
[1] = target: T1, Cytochrome P450 3A4 (Homo sapiens, UniProt P08684); experiment: Inhibition of CYP3A4 in human liver microsomes assessed as reduction in formation of midazolam to 1-Hydroxy midazolam at 50 uM preincubated for 30 mins followed by substrate addition measured after 15 mins in presence of NADPH by UPLC-MS analysis; assay type: ADME; conditions: 0.25 h
[2] = target: T2, Cytochrome P450 1A2 (Homo sapiens, UniProt P05177); experiment: Inhibition of CYP1A2 in human liver microsomes assessed as reduction in formation of phenacetin to acetaminophen at 50 uM preincubated for 30 mins followed by substrate addition measured after 15 mins in presence of NADPH by UPLC-MS analysis; assay type: ADME; conditions: 0.25 h
T2 sequence (P05177 whole entry): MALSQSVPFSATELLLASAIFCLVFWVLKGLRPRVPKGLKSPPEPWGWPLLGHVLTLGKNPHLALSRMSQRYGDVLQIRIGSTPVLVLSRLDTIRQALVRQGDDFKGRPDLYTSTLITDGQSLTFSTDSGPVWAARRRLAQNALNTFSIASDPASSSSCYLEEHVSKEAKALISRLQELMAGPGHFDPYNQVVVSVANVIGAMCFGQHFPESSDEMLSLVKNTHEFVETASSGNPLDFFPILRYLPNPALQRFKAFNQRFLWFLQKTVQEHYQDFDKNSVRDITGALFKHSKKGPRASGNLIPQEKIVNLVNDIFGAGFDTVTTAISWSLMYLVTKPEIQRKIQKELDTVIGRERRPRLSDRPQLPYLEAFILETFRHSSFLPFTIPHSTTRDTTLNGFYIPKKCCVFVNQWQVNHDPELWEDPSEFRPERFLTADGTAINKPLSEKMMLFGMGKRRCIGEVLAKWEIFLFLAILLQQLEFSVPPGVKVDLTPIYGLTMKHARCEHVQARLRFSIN

[3] = target: Cytochrome P450 2C9 (Homo sapiens, UniProt P11712); experiment: Inhibition of CYP2C9 in human liver microsomes assessed as reduction in formation of tolbutamide to 4-Hydroxytolbutamide at 50 uM preincubated for 30 mins followed by substrate addition measured after 15 mins in presence of NADPH by UPLC-MS analysis; assay type: ADME; conditions: 0.25 h
[4] = target: Cytochrome P450 2C19 (Homo sapiens, UniProt P33261); experiment: Inhibition of CYP2C19 in human liver microsomes assessed as reduction in formation of mephenytoin to 4-Hydroxy mephenytoin at 50 uM preincubated for 30 mins followed by substrate addition measured after 15 mins in presence of NADPH by UPLC-MS analysis; assay type: ADME; conditions: 0.25 h
[5] = target: Cytochrome P450 2D6 (Homo sapiens, UniProt P10635); experiment: Inhibition of CYP2D6 in human liver microsomes assessed as reduction in formation of dextromethorphan to dextrorphan at 50 uM preincubated for 30 mins followed by substrate addition measured after 15 mins in presence of NADPH by UPLC-MS analysis; assay type: ADME; conditions: 0.25 h
[6] = target: Cytochrome P450 2E1 (Homo sapiens, UniProt P05181); experiment: Inhibition of CYP2E1 in human liver microsomes assessed as reduction in formation of chlorzoxazone to 6-Hydroxy chlorzoxazone at 50 uM preincubated for 30 mins followed by substrate addition measured after 15 mins in presence of NADPH by UPLC-MS analysis; assay type: ADME; conditions: 0.25 h
[7] = target: T1, Cytochrome P450 3A4; experiment: Inhibition of CYP3A4 in human liver microsomes assessed as reduction in formation of midazolam to 1-Hydroxy midazolam at 50 uM preincubated for 30 mins followed by substrate addition measured after 15 mins in presence of varying levels of NADPH by UPLC-MS analysis; assay type: ADME; conditions: 0.25 h
[8] = target: T1, Cytochrome P450 3A4; experiment: Drug metabolism in human liver microsomes assessed as CYP3A4-mediated metabolite formation at […] preincubated for 5 mins followed by NADPH addition measured after 2 hrs by UPLC-MS/MS analysis; assay type: ADME
[9] = target: T1, Cytochrome P450 3A4; experiment: Inhibition of CYP3A4 in human liver microsomes assessed as reduction in formation of midazolam to 1-Hydroxy midazolam preincubated for 30 mins followed by substrate addition measured after 15 mins in presence of NADPH by UPLC-MS analysis; assay type: ADME; conditions: 0.25 h
[10] = target: T1, Cytochrome P450 3A4; experiment: Drug metabolism in human liver microsomes assessed as CYP3A4-mediated M1 metabolite formation at […] preincubated for 5 mins followed by NADPH addition measured after 2 hrs by UPLC-MS/MS analysis; assay type: ADME
[11] = target: T1, Cytochrome P450 3A4; experiment: Drug metabolism in human liver microsomes assessed as CYP3A4-mediated M2 metabolite formation at […] preincubated for 5 mins followed by NADPH addition measured after 2 hrs by UPLC-MS/MS analysis; assay type: ADME
[12] = Retention time of the compound in human liver microsomes by UPLC-MS/MS analysis; assay type: ADME, microsome
[13] = Drug metabolism in human liver microsomes assessed as monohydroxy formation in presence of GSH and water by UPLC-MS/MS analysis; assay type: ADME, microsome

T1 sequence (P08684 whole entry): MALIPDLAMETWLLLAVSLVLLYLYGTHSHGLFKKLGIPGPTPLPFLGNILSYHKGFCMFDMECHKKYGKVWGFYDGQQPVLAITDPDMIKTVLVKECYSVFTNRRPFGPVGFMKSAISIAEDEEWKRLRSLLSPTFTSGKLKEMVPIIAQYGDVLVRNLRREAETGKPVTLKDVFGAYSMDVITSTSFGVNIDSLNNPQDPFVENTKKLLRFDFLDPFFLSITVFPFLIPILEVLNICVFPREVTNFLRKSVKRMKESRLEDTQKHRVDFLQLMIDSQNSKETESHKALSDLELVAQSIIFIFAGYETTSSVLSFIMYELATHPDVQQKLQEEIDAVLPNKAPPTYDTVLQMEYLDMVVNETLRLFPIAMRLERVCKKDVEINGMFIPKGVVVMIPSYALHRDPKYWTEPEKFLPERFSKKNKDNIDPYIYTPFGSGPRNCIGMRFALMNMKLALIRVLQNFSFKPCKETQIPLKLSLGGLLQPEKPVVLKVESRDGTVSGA
Cytochrome P450 2D6, sequence (P10635 whole entry): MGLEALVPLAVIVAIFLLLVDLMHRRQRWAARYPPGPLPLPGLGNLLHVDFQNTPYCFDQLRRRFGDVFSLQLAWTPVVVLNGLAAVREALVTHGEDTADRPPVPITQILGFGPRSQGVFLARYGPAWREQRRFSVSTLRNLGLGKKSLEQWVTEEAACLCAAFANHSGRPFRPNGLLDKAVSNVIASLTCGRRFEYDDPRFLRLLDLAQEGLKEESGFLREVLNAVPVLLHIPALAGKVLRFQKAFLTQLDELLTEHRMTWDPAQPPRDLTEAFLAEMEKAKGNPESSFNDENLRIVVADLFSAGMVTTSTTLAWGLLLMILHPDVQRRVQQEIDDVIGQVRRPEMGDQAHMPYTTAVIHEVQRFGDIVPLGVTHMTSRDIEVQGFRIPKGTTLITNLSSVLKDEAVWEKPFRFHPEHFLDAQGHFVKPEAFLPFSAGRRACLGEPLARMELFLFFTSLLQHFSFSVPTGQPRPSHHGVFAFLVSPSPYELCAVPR
Cytochrome P450 2C19, sequence (P33261 whole entry): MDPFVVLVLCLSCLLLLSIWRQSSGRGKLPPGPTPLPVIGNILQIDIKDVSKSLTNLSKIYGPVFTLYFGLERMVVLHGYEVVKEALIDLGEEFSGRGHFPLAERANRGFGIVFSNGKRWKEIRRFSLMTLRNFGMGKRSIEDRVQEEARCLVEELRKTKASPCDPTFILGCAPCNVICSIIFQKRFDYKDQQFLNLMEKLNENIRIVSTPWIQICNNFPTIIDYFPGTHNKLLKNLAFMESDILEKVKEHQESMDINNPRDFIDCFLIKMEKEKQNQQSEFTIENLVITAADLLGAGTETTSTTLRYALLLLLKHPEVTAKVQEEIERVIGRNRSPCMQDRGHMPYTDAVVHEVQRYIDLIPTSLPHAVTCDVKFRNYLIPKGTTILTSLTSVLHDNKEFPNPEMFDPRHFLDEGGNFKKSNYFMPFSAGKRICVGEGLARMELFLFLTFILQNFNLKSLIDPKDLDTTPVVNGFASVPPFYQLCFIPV
Cytochrome P450 2C9, sequence (P11712 whole entry): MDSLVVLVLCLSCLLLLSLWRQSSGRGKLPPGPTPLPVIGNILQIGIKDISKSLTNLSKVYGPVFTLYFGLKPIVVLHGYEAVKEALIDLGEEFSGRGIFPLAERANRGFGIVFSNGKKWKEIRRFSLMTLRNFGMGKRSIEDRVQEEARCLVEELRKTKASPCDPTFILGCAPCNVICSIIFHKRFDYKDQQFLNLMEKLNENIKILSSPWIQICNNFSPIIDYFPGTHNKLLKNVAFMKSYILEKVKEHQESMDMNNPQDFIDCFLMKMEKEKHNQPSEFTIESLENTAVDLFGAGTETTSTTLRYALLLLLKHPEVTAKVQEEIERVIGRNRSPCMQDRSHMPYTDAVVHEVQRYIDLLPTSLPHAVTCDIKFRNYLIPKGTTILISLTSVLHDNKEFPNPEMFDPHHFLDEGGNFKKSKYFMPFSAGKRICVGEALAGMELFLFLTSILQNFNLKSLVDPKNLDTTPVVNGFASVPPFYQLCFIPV
Cytochrome P450 2E1, sequence (P05181 whole entry): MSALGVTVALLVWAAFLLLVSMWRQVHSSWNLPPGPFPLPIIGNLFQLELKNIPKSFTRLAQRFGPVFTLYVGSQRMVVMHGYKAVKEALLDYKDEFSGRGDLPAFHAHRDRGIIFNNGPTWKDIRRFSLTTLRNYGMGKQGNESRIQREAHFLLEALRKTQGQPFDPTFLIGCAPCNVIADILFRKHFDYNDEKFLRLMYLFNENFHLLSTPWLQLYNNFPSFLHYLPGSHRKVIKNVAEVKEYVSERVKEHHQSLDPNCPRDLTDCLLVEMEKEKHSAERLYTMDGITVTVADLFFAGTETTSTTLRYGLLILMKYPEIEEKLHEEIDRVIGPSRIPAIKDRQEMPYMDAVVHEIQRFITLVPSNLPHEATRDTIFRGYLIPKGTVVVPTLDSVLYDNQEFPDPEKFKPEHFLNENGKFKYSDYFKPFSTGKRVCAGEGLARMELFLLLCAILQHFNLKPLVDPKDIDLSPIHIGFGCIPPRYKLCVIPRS

SMILES: CC(=O)OC[C@@]12[C@H](OC(C)=O)[C@H](OC(C)=O)[C@@H]3[C@@H](OC(C)=O)[C@@]14O[C@@]3(C)COC(=O)c1cccnc1[C@@H](C)[C@H](C)C(=O)O[C@@H]([C@H](OC(C)=O)[C@@H]2OC(C)=O)[C@]4(C)O
- inhibition (INH) [1]: Active
- inhibition (INH) [2]: Not Active
- inhibition (INH) [3]: Not Active
- inhibition (INH) [4]: Not Active
- inhibition (INH) [5]: Not Active
- inhibition (INH) [6]: Not Active
- inhibition (INH) [7]: Not Active
- Drug metabolism [8]: Metabolite_Notdetected

SMILES: CC(=O)OC[C@]12[C@H](OC(C)=O)[C@H](OC(C)=O)[C@@H]3[C@@H](OC(C)=O)[C@@]14O[C@@]3(C)COC(=O)c1cccnc1CC[C@H](C)C(=O)O[C@@H]([C@H](OC(=O)c1ccccc1)[C@@H]2OC(C)=O)[C@]4(C)O
- inhibition (INH) [1]: Active
- inhibition (INH) [2]: Active
- inhibition (INH) [3]: Active
- inhibition (INH) [4]: Active
- inhibition (INH) [5]: Active
- inhibition (INH) [6]: Active

SMILES: CC(=O)OC[C@]12[C@H](OC(C)=O)[C@H](OC(C)=O)[C@@H]3[C@@H](OC(C)=O)[C@@]14O[C@@]3(C)COC(=O)c1cccnc1CC[C@@](C)(O)C(=O)O[C@@H]([C@H](OC(=O)c1ccccc1)[C@@H]2OC(C)=O)[C@]4(C)O
- inhibition (INH) [1]: Active
- inhibition (INH) [2]: Active
- inhibition (INH) [3]: Active
- inhibition (INH) [4]: Active
- inhibition (INH) [5]: Active
- inhibition (INH) [6]: Active

The remaining lines, values ahead:

- inhibition (INH) [1]: Active
- inhibition (INH) [2]: Not Active
- inhibition (INH) [3]: Not Active
- inhibition (INH) [4]: Not Active
- inhibition (INH) [5]: Not Active
- inhibition (INH) [6]: Not Active
- inhibition (INH) [9]: Dose-dependent effect
- inhibition (INH) [7]: Active
- Drug metabolism [10]: Metabolite_Detected
- Drug metabolism [11]: Metabolite_Detected
- Retention_time [12]: 10.55 min
- Drug metabolism [13]: Metabolite_Detected
SMILES: CC(=O)OC[C@]12[C@H](OC(C)=O)[C@H](OC(C)=O)[C@@H]3[C@@H](OC(C)=O)[C@@]14O[C@@]3(C)COC(=O)c1cccnc1CC[C@@](C)(O)C(=O)O[C@@H]([C@H](OC(=O)c1ccoc1)[C@@H]2OC(C)=O)[C@]4(C)O

- inhibition (INH) [1]: Active
- inhibition (INH) [2]: Not Active
- inhibition (INH) [3]: Not Active
- inhibition (INH) [4]: Not Active
- inhibition (INH) [5]: Not Active
- inhibition (INH) [6]: Not Active
- inhibition (INH) [7]: Not Active
- Drug metabolism [8]: Metabolite_Notdetected
SMILES: CC(=O)OC[C@]12[C@H](OC(C)=O)[C@H](OC(C)=O)[C@@H]3[C@@H](OC(C)=O)[C@@]14O[C@@]3(C)COC(=O)c1cccnc1CCC(C)C(=O)O[C@@H]([C@H](OC(=O)c1ccoc1)[C@@H]2OC(C)=O)[C@]4(C)O (stereo not given in full)

From ChEMBL document CHEMBL4177553, “Rapid screening the potential mechanism-based inhibitors of CYP3A4 from Tripterygium wilfordi based on computer approaches combined with in vitro bioassay” (Bioorg Med Chem, 2017)
